Measurements published in ChEMBL document CHEMBL3885881, “DrugMatrix”.

Species: Rattus norvegicus
Assay: DrugMatrix - Regimen: Daily Repeat
Assay type: toxicity, organism-based, Sprague-Dawley
Set-up: regimen Daily Repeat, gender Male, age 6-8 weeks
Settings: in vivo, po, route oral GAVAGE, vehicle .5 % CMC; for ABSOLUTE BASOPHIL / ABSOLUTE EOSINOPHIL / ABSOLUTE LYMPHOCYTE / ABSOLUTE MONOCYTE / ABSOLUTE SEGMENTED NEUTROPHIL / BASOPHIL / EOSINOPHIL / ERYTHROCYTE COUNT / HEMATOCRIT / HEMOGLOBIN / LEUKOCYTE COUNT / LYMPHOCYTE / MEAN CORPUSCULAR HEMOGLOBIN / MEAN CORPUSCULAR HEMOGLOBIN CONCENTRATION / MEAN CORPUSCULAR VOLUME / MONOCYTE / NEUTROPHIL / NUCLEATED RED BLOOD CELLS / PLATELET COUNT: tissue Blood; for ALANINE AMINOTRANSFERASE / ALBUMIN / ALKALINE PHOSPHATASE / ASPARTATE AMINOTRANSFERASE / BLOOD UREA NITROGEN / CARBON DIOXIDE / CHLORIDE / CHOLESTEROL / CREATINE PHOSPHOKINASE / CREATININE / GLUCOSE / LACTATE DEHYDROGENASE / LIPASE / PHOSPHORUS / POTASSIUM / SODIUM / TOTAL BILIRUBIN / TOTAL PROTEIN / URIC ACID: tissue Plasma
[1] = 0 mg/kg, 72 h, dose level Control, time 3 day
[2] = 0 mg/kg, 120 h, dose level Control, time 5 day
[3] = 30 mg/kg, 72 h, dose level Low, time 3 day

CCOc1cc(N)c(Cl)cc1C(=O)NCC1CN(Cc2ccc(F)cc2)CCO1 (centres undefined) [MOSAPRIDE]
ABSOLUTE BASOPHIL [1]: 0 CELLS/uL
ABSOLUTE EOSINOPHIL [1]: 171.33 CELLS/uL
ABSOLUTE LYMPHOCYTE [1]: 13776.5 CELLS/uL
ABSOLUTE MONOCYTE [1]: 180.83 CELLS/uL
ABSOLUTE SEGMENTED NEUTROPHIL [1]: 1121.33 CELLS/uL
BASOPHIL [1]: 0%
EOSINOPHIL [1]: 1%
ERYTHROCYTE COUNT [1]: 5.56 x10E6/uL
HEMATOCRIT [1]: 34.75%
HEMOGLOBIN [1]: 13.68 G/DL
LEUKOCYTE COUNT [1]: 15.25 x10E3/uL
LYMPHOCYTE [1]: 90.17%
MEAN CORPUSCULAR HEMOGLOBIN [1]: 24.6 pg
MEAN CORPUSCULAR HEMOGLOBIN CONCENTRATION [1]: 39.4 G/DL
MEAN CORPUSCULAR VOLUME [1]: 62.48 fL
MONOCYTE [1]: 1.17%
NEUTROPHIL [1]: 7.67%
NUCLEATED RED BLOOD CELLS [1]: 0 /100WBC
PLATELET COUNT [1]: 1342 x10E3/uL
ALANINE AMINOTRANSFERASE [1]: 49.67 u/L
ALBUMIN [1]: 4.15 G/DL
ALKALINE PHOSPHATASE [1]: 346.83 u/L
ASPARTATE AMINOTRANSFERASE [1]: 108.17 u/L
BLOOD UREA NITROGEN [1]: 17.33 mg/dL
CARBON DIOXIDE [1]: 25 mmol/L
CHLORIDE [1]: 100.83 MEQ/L
CHOLESTEROL [1]: 66.83 mg/dL
CREATINE PHOSPHOKINASE [1]: 788 u/L
CREATININE [1]: 0.18 mg/dL
GLUCOSE [1]: 151.67 mg/dL
LACTATE DEHYDROGENASE [1]: 982.5 u/L
LIPASE [1]: 10.33 u/L
PHOSPHORUS [1]: 11.23 mg/dL
POTASSIUM [1]: 6.37 MEQ/L
SODIUM [1]: 141.02 MEQ/L
TOTAL BILIRUBIN [1]: 0.18 mg/dL
TOTAL PROTEIN [1]: 5.9 G/DL
URIC ACID [1]: 1.8 mg/dL
ABSOLUTE BASOPHIL [2]: 0 CELLS/uL
ABSOLUTE EOSINOPHIL [2]: 69 CELLS/uL
ABSOLUTE LYMPHOCYTE [2]: 13632.83 CELLS/uL
ABSOLUTE MONOCYTE [2]: 139.83 CELLS/uL
ABSOLUTE SEGMENTED NEUTROPHIL [2]: 1225 CELLS/uL
BASOPHIL [2]: 0%
EOSINOPHIL [2]: 0.33%
ERYTHROCYTE COUNT [2]: 5.52 x10E6/uL
HEMATOCRIT [2]: 33.98%
HEMOGLOBIN [2]: 13.22 G/DL
LEUKOCYTE COUNT [2]: 15.07 x10E3/uL
LYMPHOCYTE [2]: 90.83%
MEAN CORPUSCULAR HEMOGLOBIN [2]: 23.95 pg
MEAN CORPUSCULAR HEMOGLOBIN CONCENTRATION [2]: 38.9 G/DL
MEAN CORPUSCULAR VOLUME [2]: 61.53 fL
MONOCYTE [2]: 0.83%
NEUTROPHIL [2]: 8%
NUCLEATED RED BLOOD CELLS [2]: 0 /100WBC
PLATELET COUNT [2]: 1196 x10E3/uL
ALANINE AMINOTRANSFERASE [2]: 49.17 u/L
ALBUMIN [2]: 4.2 G/DL
ALKALINE PHOSPHATASE [2]: 352.33 u/L
ASPARTATE AMINOTRANSFERASE [2]: 89.67 u/L
BLOOD UREA NITROGEN [2]: 18 mg/dL
CARBON DIOXIDE [2]: 27.67 mmol/L
CHLORIDE [2]: 101 MEQ/L
CHOLESTEROL [2]: 72.83 mg/dL
CREATINE PHOSPHOKINASE [2]: 417.5 u/L
CREATININE [2]: 0.18 mg/dL
GLUCOSE [2]: 150.5 mg/dL
LACTATE DEHYDROGENASE [2]: 517.33 u/L
LIPASE [2]: 9 u/L
PHOSPHORUS [2]: 11.87 mg/dL
POTASSIUM [2]: 6.57 MEQ/L
SODIUM [2]: 143.62 MEQ/L
TOTAL BILIRUBIN [2]: 0.2 mg/dL
TOTAL PROTEIN [2]: 6.08 G/DL
URIC ACID [2]: 1.45 mg/dL
ABSOLUTE BASOPHIL [3]: 0 CELLS/uL
ABSOLUTE EOSINOPHIL [3]: 0 CELLS/uL
ABSOLUTE LYMPHOCYTE [3]: 13493 CELLS/uL
ABSOLUTE MONOCYTE [3]: 253.67 CELLS/uL
ABSOLUTE SEGMENTED NEUTROPHIL [3]: 1253.33 CELLS/uL
BASOPHIL [3]: 0%
EOSINOPHIL [3]: 0%
ERYTHROCYTE COUNT [3]: 5.62 x10E6/uL
HEMATOCRIT [3]: 34.97%
HEMOGLOBIN [3]: 13.6 G/DL
LEUKOCYTE COUNT [3]: 15 x10E3/uL
LYMPHOCYTE [3]: 90%
MEAN CORPUSCULAR HEMOGLOBIN [3]: 24.23 pg
MEAN CORPUSCULAR HEMOGLOBIN CONCENTRATION [3]: 38.9 G/DL
MEAN CORPUSCULAR VOLUME [3]: 62.3 fL
MONOCYTE [3]: 1.67%
NEUTROPHIL [3]: 8.33%
NUCLEATED RED BLOOD CELLS [3]: 0 /100WBC
PLATELET COUNT [3]: 1159.67 x10E3/uL
ALANINE AMINOTRANSFERASE [3]: 57.33 u/L
ALBUMIN [3]: 4.3 G/DL
ALKALINE PHOSPHATASE [3]: 338 u/L
ASPARTATE AMINOTRANSFERASE [3]: 95 u/L
BLOOD UREA NITROGEN [3]: 14.67 mg/dL
CARBON DIOXIDE [3]: 26.33 mmol/L
CHLORIDE [3]: 102 MEQ/L
CHOLESTEROL [3]: 74 mg/dL
CREATINE PHOSPHOKINASE [3]: 533.33 u/L
CREATININE [3]: 0.2 mg/dL
GLUCOSE [3]: 136.67 mg/dL
LACTATE DEHYDROGENASE [3]: 408 u/L
LIPASE [3]: 10.67 u/L
PHOSPHORUS [3]: 12.77 mg/dL
POTASSIUM [3]: 6.39 MEQ/L
SODIUM [3]: 143.7 MEQ/L
TOTAL BILIRUBIN [3]: 0.2 mg/dL
TOTAL PROTEIN [3]: 6 G/DL
URIC ACID [3]: 1.47 mg/dL
